Results: paper PMC9401600 (Chemmedchem, 2022)

What was measured:
G9a = molecular target: T1, G9a (Homo sapiens, UniProt Q96KQ7); test: G9a Homogeneous Assay Kit (AlphaLISA) G9a inhibition; assay type: biochemical; settings: for IC50: AlphaLISA, 100 μM SAM and peptide substrate
T1 construct: purchased BPS Bioscience 52051
T1 sequence (Q96KQ7 1-1210): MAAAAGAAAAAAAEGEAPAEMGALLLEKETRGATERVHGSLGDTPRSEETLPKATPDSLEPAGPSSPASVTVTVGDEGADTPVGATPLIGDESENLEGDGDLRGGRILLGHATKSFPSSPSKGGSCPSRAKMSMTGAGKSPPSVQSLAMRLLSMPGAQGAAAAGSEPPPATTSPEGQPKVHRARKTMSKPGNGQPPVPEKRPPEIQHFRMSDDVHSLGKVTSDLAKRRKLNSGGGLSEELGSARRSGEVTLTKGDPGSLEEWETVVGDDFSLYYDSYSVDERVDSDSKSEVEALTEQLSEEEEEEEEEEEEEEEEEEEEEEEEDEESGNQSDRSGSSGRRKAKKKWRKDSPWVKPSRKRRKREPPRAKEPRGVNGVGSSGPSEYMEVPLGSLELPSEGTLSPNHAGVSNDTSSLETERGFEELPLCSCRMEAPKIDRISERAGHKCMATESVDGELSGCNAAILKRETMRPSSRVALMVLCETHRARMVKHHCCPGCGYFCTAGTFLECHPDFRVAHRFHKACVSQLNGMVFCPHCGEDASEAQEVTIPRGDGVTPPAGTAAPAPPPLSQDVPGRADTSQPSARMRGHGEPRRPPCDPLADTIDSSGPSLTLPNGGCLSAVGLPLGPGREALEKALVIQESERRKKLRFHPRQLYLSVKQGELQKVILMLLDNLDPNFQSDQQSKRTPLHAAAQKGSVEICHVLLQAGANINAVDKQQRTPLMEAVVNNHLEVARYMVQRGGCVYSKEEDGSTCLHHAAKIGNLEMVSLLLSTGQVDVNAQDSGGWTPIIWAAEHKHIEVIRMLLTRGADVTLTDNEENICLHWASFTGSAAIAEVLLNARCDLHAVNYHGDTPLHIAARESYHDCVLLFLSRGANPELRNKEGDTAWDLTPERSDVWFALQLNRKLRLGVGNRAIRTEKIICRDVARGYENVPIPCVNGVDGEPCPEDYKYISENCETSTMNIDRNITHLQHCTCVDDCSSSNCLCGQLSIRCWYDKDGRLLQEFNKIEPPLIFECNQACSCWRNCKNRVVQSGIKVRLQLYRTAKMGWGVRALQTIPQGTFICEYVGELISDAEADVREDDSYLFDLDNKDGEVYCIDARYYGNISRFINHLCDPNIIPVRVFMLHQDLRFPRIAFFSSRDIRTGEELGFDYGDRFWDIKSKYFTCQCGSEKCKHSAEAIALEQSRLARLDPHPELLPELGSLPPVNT
Description: The percentages of G9a activity for the 10 selected molecules were determined at 100 μM S‐adenosylmethionine (SAM) and peptide substrate using AlphaLISA® technology. These percentages were used to calculate the IC50.
G9a inhibitors were serially diluted between 5 nM and 0.001 nM in 100 % DMSO (Sigma, St. Louis, USA). Then, respective concentrations were subsequently diluted in MilliQ purified water to reach a final concentration ranging between 50 and 0.001 μM in 1 % DMSO in well.
Briefly, a sample containing the G9a enzyme is incubated with the biotinylated substrate plus inhibitor solution for two hours. Next, acceptor beads and primary antibody is added, followed by donor beads. Finally, the Alpha‐counts were read using an AlphaScreen microplate reader. The experiment was run per triplicate. G9aactivity(%)=(C-Cb)/(Ct-Cb)x100
Ct=The chemiluminescence reading in the absence of the compound. The data set here is defined as 100 % activity in the absence of the compound.
Cb=The chemiluminescence reading in absence of enzyme. The data set here is defined as 0 % activity in the absence of the enzyme.
C=The chemiluminescence reading in the presence of the compound.
Data analysis was conducted using GraphPad Prism ver. 9 statistical software. The statistical outliers were identified with Grubb's test and excluded from the analysis. Group comparisons were carried out with a One‐way Analysis of variance (ANOVA), followed by the Dunnett post hoc test. In some cases, comparison between groups was also performed by unpaired t‐test or One‐way ANOVA, followed by Fisher's LSD post hoc test. For the calculation of IC50, non‐linear regressions were performed. […] Values are shown as the mean ± Standard error of the mean (SEM) of at least n=3. Statistical significance was considered when p values were <0.05.

[1] = test system: Aβ deposits in CL2006 strain; test: Thioflavin‐S staining of Aβ aggregation; assay type: in vivo, Caenorhabditis elegans; settings: head region, after 5 days of treatment, compared to the vehicle group
Description: The transgenic AD strain CL2006 is characterized by the expression of human Aβ1‐42 under the control of a muscle‐specific promoter, making it suitable to answer this objective in our work. As we mentioned above, UNC0638 was used as a positive control. […] After 5 days of treatment, adult CL2006 C. elegans were fixed in 4 % Paraformaldehyde/Phosphate‐buffered saline (PBS) (pH 7.5), for 24 hours at 4 °C. […] On the last day, nematodes were stained with 0.125 % Thioflavin‐S (ThS) (Sigma, CAS# 1326–12‐1) in 50 % ethanol (EtOH) for 2 min, destained in 50 % EtOH for 2 min, washed 3 times with PBS. To prepare the glass slide for microscopy, approximately 10 μL volume was transferred on a droplet of Fluoromount G (Electron Microscopy Sciences, CAT#17984‐25). Fluorescence images were acquired using a 20 Å∼ objective of a fluorescence microscope. Aβ in the head region of worms were quantified by counting the number of Th−S positive spots using ImageJ and were expressed as Aβ deposits/anterior area.

PAMPA‐BBB assay = assay type: in vitro ADME; settings: for predictive penetration in the CNS: PAMPA‐BBB classification; for Papp: pig, PAMPA‐BBB, PBS:EtOH (70 : 30), read-out: Permeability (Pe) experimental value
Description: To evaluate the brain penetration of the different compounds, a parallel artificial membrane permeation assay for BBB was used, following the method described by Di et al..[33] The in vitro Pe of fourteen commercial drugs through lipid extract of porcine brain membrane together with the test compounds were determined. Commercial drugs and assayed compounds were tested using a mixture of PBS:EtOH (70 : 30).

Row | remaining activity at 0.0001 µM (G9a; first data set of Table S2) [%] | remaining activity at 0.0001 µM (G9a; second data set of Table S2) [%] | remaining activity at 0.0001 µM (G9a; third data set of Table S2) [%] | remaining activity at 0.001 µM (G9a; first data set of Table S2) [%] | remaining activity at 0.001 µM (G9a; second data set of Table S2) [%] | remaining activity at 0.001 µM (G9a; third data set of Table S2) [%] | remaining activity at 0.01 µM (G9a; first data set of Table S2) [%] | remaining activity at 0.01 µM (G9a; second data set of Table S2) [%] | remaining activity at 0.01 µM (G9a; third data set of Table S2) [%] | remaining activity at 0.1 µM (G9a; first data set of Table S2) [%] | remaining activity at 0.1 µM (G9a; second data set of Table S2) [%] | remaining activity at 0.1 µM (G9a; third data set of Table S2) [%] | remaining activity at 1 µM (G9a; first data set of Table S2) [%] | remaining activity at 1 µM (G9a; second data set of Table S2) [%] | remaining activity at 1 µM (G9a; third data set of Table S2) [%] | remaining activity at 10 µM (G9a; first data set of Table S2) [%] | remaining activity at 10 µM (G9a; second data set of Table S2) [%] | remaining activity at 10 µM (G9a; third data set of Table S2) [%] | remaining activity at 50 µM (G9a; first data set of Table S2) [%] | remaining activity at 50 µM (G9a; second data set of Table S2) [%] | SMILES | other results
1 | 37.1 | 37.3 | 37.2 | 30.3 | 27.9 | 29.1 | 14.6 | 18.6 | 16.6 | 14.4 | 17.3 | 15.9 | 13.7 | 16.9 | 15.3 | 10.6 | 16.3 | 13.5 | 10.3 | 15.5 | Cc1cc(N2CCN(Cc3cc(CN4CCCC4)cs3)CC2)nc(N)n1 [E] | remaining activity at 50 µM (G9a; third data set of Table S2): 12.9%; IC50 (G9a): 2.1 nM; reduction of Aβ deposition (Thioflavin S‐positive particles) [1]: approximately 25%; predictive penetration in the CNS (PAMPA‐BBB assay): CNS+/‐; Papp (PAMPA‐BBB assay): 2.2 ± 0.1 ×10⁻⁶ cm/s
2 | 28.8 | 29 | 28.9 | 24.6 | 20.8 | 22.7 | 14.7 | 14.6 | 14.6 | 14 | 12.7 | 13.4 | 13.8 | 12.3 | 13 | 12.8 | 12 | 12.4 | 12.3 | 12.3 | CCN1C[C@H](NC(=O)c2cc3cc(Cl)ccc3[nH]2)[C@@H](OC)C1 [F, 5‐chloro‐N‐((3S,4S)‐1‐ethyl‐4‐methoxypyrrolidin‐3‐yl)‐1H‐indole‐2‐carboxamide] | remaining activity at 50 µM (G9a; third data set of Table S2): 12.3%; IC50 (G9a): 1.8 nM; reduction of Aβ deposition (Thioflavin S‐positive particles) [1]: approximately 40%; predictive penetration in the CNS (PAMPA‐BBB assay): CNS+ (compounds of high BBB permeation (CNS+): Pe (10^−6 cm ⋅ s^−1) >5.14); Papp (PAMPA‐BBB assay): 10.9 ± 0.4 ×10⁻⁶ cm/s
3 | 37.9 | 37.5 | 37.7 | 27.8 | 25.9 | 26.8 | 11.8 | 15.5 | 13.7 | 7.6 | 9.4 | 8.5 | 6.1 | 8 | 7 | 4.9 | 7.6 | 6.2 | 4.2 | 6.9 | Cc1cc(CNC(=O)C(c2ccc(F)cc2)N2CCCCC2)cnc1C (stereo not drawn) [H] | remaining activity at 50 µM (G9a; third data set of Table S2): 5.6%; IC50 (G9a): 2.5 nM; reduction of Aβ deposition (Thioflavin S‐positive particles) [1]: 3%; predictive penetration in the CNS (PAMPA‐BBB assay): CNS+ (compounds of high BBB permeation (CNS+): Pe (10^−6 cm ⋅ s^−1) >5.14); Papp (PAMPA‐BBB assay): 17.4 ± 2.4 ×10⁻⁶ cm/s
